System: 138582-337-R-J1-PDC complex spheroid viability
Assay: Anticancer human tumor 138582-337-R-J1-PDC patient-derived Merkel cell tumor cell line growth inhibition
Details: for IC50: curve of first compound; for viability, T/C: stronger effect = lower value
In short: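 Multicellular complex spheroids of tumor cells with human endothelial cells (HUVEC) and mesenchymal stem cells; the LSD1 inhibitor iadademstat was combined with standard-of-care or investigational agents. Top concentration at or near clinical Cmax, half-log dilutions; final DMSO ≤0.25%.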

[1] = second compound 0.1 µM, first compound 0.000316 µM
[2] = second compound 0.1 µM, first compound 0.001 µM
[3] = second compound 0.1 µM, first compound 0.00316 µM
[4] = second compound 0.1 µM, first compound 0.01 µM
[5] = second compound 0.1 µM, first compound 0.0316 µM
[6] = second compound 0.1 µM, first compound 0.1 µM
[7] = second compound 0.316 µM, first compound 0.000316 µM
[8] = second compound 0.316 µM, first compound 0.001 µM
[9] = second compound 0.316 µM, first compound 0.00316 µM
[10] = second compound 0.316 µM, first compound 0.01 µM
[11] = second compound 0.316 µM, first compound 0.0316 µM
[12] = second compound 0.316 µM, first compound 0.1 µM
[13] = second compound 1 µM, first compound 0.000316 µM
[14] = second compound 1 µM, first compound 0.001 µM
[15] = second compound 1 µM, first compound 0.00316 µM
[16] = second compound 1 µM, first compound 0.01 µM
[17] = second compound 1 µM, first compound 0.0316 µM
[18] = second compound 1 µM, first compound 0.1 µM
[19] = second compound 3.16 µM, first compound 0.000316 µM
[20] = second compound 3.16 µM, first compound 0.001 µM
[21] = second compound 3.16 µM, first compound 0.00316 µM
[22] = second compound 3.16 µM, first compound 0.01 µM
[23] = second compound 3.16 µM, first compound 0.0316 µM
[24] = second compound 3.16 µM, first compound 0.1 µM
[25] = second compound 10 µM, first compound 0.000316 µM
[26] = second compound 10 µM, first compound 0.001 µM
[27] = second compound 10 µM, first compound 0.00316 µM
[28] = second compound 10 µM, first compound 0.01 µM
[29] = second compound 10 µM, first compound 0.0316 µM
[30] = second compound 10 µM, first compound 0.1 µM
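Also: spheroids exposed to agents for 7 days.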
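For viability, T/C in this document: 100% = DMSO vehicle control viability.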

## CC(C)CC(NC(=O)C(Cc1ccccc1)NC(=O)c1cnccn1)B(O)O (stereo not given) + NC1CCC(NC2CC2c2ccccc2)CC1
Second compound 0.1 µM
  IC50: 1.03 nM
Second compound 0.316 µM
  IC50: 1.01 nM
Second compound 1 µM
  IC50: 0.946 nM
Second compound 3.16 µM
  IC50: 0.951 nM
Second compound 10 µM
  IC50: 0.842 nM
[1]
  viability, T/C: 125%
[2]
  viability, T/C: 51.3%
[3]
  viability, T/C: 0.5%
[4]
  viability, T/C: 0.19%
[5]
  viability, T/C: 0.22%
[6]
  viability, T/C: 0.28%
[7]
  viability, T/C: 116%
[8]
  viability, T/C: 50.6%
[9]
  viability, T/C: 0.83%
[10]
  viability, T/C: 0.29%
[11]
  viability, T/C: 0.16%
[12]
  viability, T/C: 0.25%
[13]
  viability, T/C: 114%
[14]
  viability, T/C: 46.8%
[15]
  viability, T/C: 0.91%
[16]
  viability, T/C: 0.12%
[17]
  viability, T/C: 0.14%
[18]
  viability, T/C: 0.29%
[19]
  viability, T/C: 116%
[20]
  viability, T/C: 47%
[21]
  viability, T/C: 1.46%
[22]
  viability, T/C: 0.18%
[23]
  viability, T/C: 0.15%
[24]
  viability, T/C: 0.25%
[25]
  viability, T/C: 105%
[26]
  viability, T/C: 40.3%
[27]
  viability, T/C: 0.75%
[28]
  viability, T/C: 0.3%
[29]
  viability, T/C: 0.22%
[30]
  viability, T/C: 0.24%

## CC(C)CC(NC(=O)CNC(=O)c1cc(Cl)ccc1Cl)B1OC(=O)CC(CC(=O)O)(C(=O)O)O1 (stereo not given) + NC1CCC(NC2CC2c2ccccc2)CC1
Second compound 0.1 µM
  IC50: 8.89 nM
Second compound 0.316 µM
  IC50: 8.97 nM
Second compound 1 µM
  IC50: 10 nM
Second compound 3.16 µM
  IC50: 8.03 nM
Second compound 10 µM
  IC50: 8.49 nM
[1]
  viability, T/C: 101%
[2]
  viability, T/C: 129%
[3]
  viability, T/C: 124%
[4]
  viability, T/C: 42.3%
[5]
  viability, T/C: 6.66%
[6]
  viability, T/C: 0.46%
[7]
  viability, T/C: 109%
[8]
  viability, T/C: 129%
[9]
  viability, T/C: 115%
[10]
  viability, T/C: 42.9%
[11]
  viability, T/C: 11.4%
[12]
  viability, T/C: 0.49%
[13]
  viability, T/C: 94.4%
[14]
  viability, T/C: 115%
[15]
  viability, T/C: 120%
[16]
  viability, T/C: 50.1%
[17]
  viability, T/C: 7.89%
[18]
  viability, T/C: 0.25%
[19]
  viability, T/C: 104%
[20]
  viability, T/C: 98.8%
[21]
  viability, T/C: 112%
[22]
  viability, T/C: 37.1%
[23]
  viability, T/C: 9.88%
[24]
  viability, T/C: 0.47%
[25]
  viability, T/C: 89.8%
[26]
  viability, T/C: 105%
[27]
  viability, T/C: 101%
[28]
  viability, T/C: 42%
[29]
  viability, T/C: 7.38%
[30]
  viability, T/C: 0.96%

## COc1cc(Nc2ncc3c(n2)-c2ccc(Cl)cc2C(c2c(F)cccc2OC)=NC3)ccc1C(=O)O + NC1CCC(NC2CC2c2ccccc2)CC1
Second compound 0.1 µM
  IC50: > 1000 nM
Second compound 0.316 µM
  IC50: > 1000 nM
Second compound 1 µM
  IC50: > 1000 nM
Second compound 3.16 µM
  IC50: > 1000 nM
Second compound 10 µM
  IC50: > 1000 nM
[3]
  viability, T/C: 89.6%
[4]
  viability, T/C: 97.8%
[5]
  viability, T/C: 85.2%
[6]
  viability, T/C: 83.3%
Second compound 0.1 µM, first compound 0.316 µM
  viability, T/C: 93%
Second compound 0.1 µM, first compound 1 µM
  viability, T/C: 88.3%
[9]
  viability, T/C: 99.2%
[10]
  viability, T/C: 91.4%
[11]
  viability, T/C: 91.4%
[12]
  viability, T/C: 86.8%
Second compound 0.316 µM, first compound 0.316 µM
  viability, T/C: 98.2%
Second compound 0.316 µM, first compound 1 µM
  viability, T/C: 90.1%
[15]
  viability, T/C: 89.6%
[16]
  viability, T/C: 93.3%
[17]
  viability, T/C: 88.1%
[18]
  viability, T/C: 98%
Second compound 1 µM, first compound 0.316 µM
  viability, T/C: 96.3%
Second compound 1 µM, first compound 1 µM
  viability, T/C: 84.1%
[21]
  viability, T/C: 98.2%
[22]
  viability, T/C: 94.9%
[23]
  viability, T/C: 87.1%
[24]
  viability, T/C: 78.9%
Second compound 3.16 µM, first compound 0.316 µM
  viability, T/C: 74.7%
Second compound 3.16 µM, first compound 1 µM
  viability, T/C: 83%
[27]
  viability, T/C: 99.9%
[28]
  viability, T/C: 98.6%
[29]
  viability, T/C: 90.5%
[30]
  viability, T/C: 76.9%
Second compound 10 µM, first compound 0.316 µM
  viability, T/C: 87.2%
Second compound 10 µM, first compound 1 µM
  viability, T/C: 74.2%

Source: PubChem BioAssay AID1918931 (Molecular Pharmacology Branch, DTP, NCI, 2023)
